{"source": "patent US20240408122A1", "about": "“PHARMACEUTICAL COMPOSITION FOR PREVENTION OR TREATMENT OF METABOLIC DISEASE COMPRISING LYSOPHOSPHOLIPID” (SEOUL NATIONAL UNIVERSITY R&DB FOUNDATION, priority 2021, published 2024)", "key": {"[1]": {"test_system": "C3H10T1/2 adipocytes", "experiment": "Quantification of intracellular cAMP level (Direct cAMP ELISA)", "format": "cell-based", "details": "1 μM, 24 hours; FIG. 2A", "procedure": "C3H10T1/2 cells were purchased from the American Type Culture Collection (ATCC), and in vitro adipocyte experiments were performed using these cells, which were cultured in DMEM (Welgene) supplemented with 10% FBS (Gibco) and 1% P/S at 37° C. in a humidified atmosphere of 5% CO2. To prepare fully differentiated C3H10T1/2 adipocytes, confluent C3H10T1/2 cells were exposed to BMP4 (R&D system, 20 ng/ml) for 2 days, and induced in a differentiation medium containing IBMX (isobutylmethylxanthine, Cayman, 0.5 mM), dexamethasone (Cayman, 1 μM), insulin (Sigma, 10 μg/mL), indomethacin (Cayman, 0.125 mM), and triiodothyronine (T3, Cayman, 1 nM) for 3 days, then exposed to a maintenance medium containing insulin (1 μg/mL) and T3 (1 nM) for 3 days. […]\nTo measure intracellular CAMP levels in the differentiated C3H10T1/2 adipocytes treated with LPC P-18:0 (1 μM), LPE P-18:0 (1 μM) or isoproterenol (10 μM), The Direct CAMP ELISA Kit (Enzo) was used according to the manufacturer's instructions. […] The absorbance of the plate was measured at 405 nm, and the calculated absorbance was converted into pmol/ml of CAMP using AssayFit Pro (v1.31), and normalized to protein concentration measured with the Pierce BCA Protein Assay Kit (Thermo Fisher Scientific)."}, "[2]": {"test_system": "C3H10T1/2 adipocytes", "experiment": "Immunoblot analysis of C3H10T1/2 adipocytes (PKA signaling, mitochondrial enzymes)", "format": "cell-based", "details": "for levels of phosphorylated HSL, CREB and PKA substrates / mitochondrial enzymes, including MCAD, ATP5A, UQCRC2, SDHB, NDUFB8, and COXIV: 1 μM; for levels of phosphorylated HSL, CREB and PKA substrates: 24 or 48 hours, vs vehicle, FIG. 1A; for mitochondrial enzymes, including MCAD, ATP5A, UQCRC2, SDHB, NDUFB8, and COXIV: long-term treatment (48 hours), FIG. 1B", "procedure": "(§1) C3H10T1/2 cells were purchased from the American Type Culture Collection (ATCC), and in vitro adipocyte experiments were performed using these cells, which were cultured in DMEM (Welgene) supplemented with 10% FBS (Gibco) and 1% P/S at 37° C. in a humidified atmosphere of 5% CO2. To prepare fully differentiated C3H10T1/2 adipocytes, confluent C3H10T1/2 cells were exposed to BMP4 (R&D system, 20 ng/ml) for 2 days, and induced in a differentiation medium containing IBMX (isobutylmethylxanthine, Cayman, 0.5 mM), dexamethasone (Cayman, 1 μM), insulin (Sigma, 10 μg/mL), indomethacin (Cayman, 0.125 mM), and triiodothyronine (T3, Cayman, 1 nM) for 3 days, then exposed to a maintenance medium containing insulin (1 μg/mL) and T3 (1 nM) for 3 days. To evaluate in vitro effects of lysoplasmalogen, the fully differentiated C3H10T1/2 cells were treated with vehicle control, LPE P-18:0 (1 μM) or LPC P-18:0 (1 μM), LPC P-16:0. (10 μM) or isoproterenol (10 μM) for an indicated time.\n(§2) BAT, iWAT and gWAT of mice fed a HFD and administered vehicle control or LPE P-18:0 intraperitoneally were homogenized using the tacoPrep Bead Beater homogenization system in a PROPREP protein extraction solution (iNtRON Biotechnology) containing SIGMAFAST Protease Inhibitor Cocktail (Sigma) and PhoSTOP phosphatase inhibitor (Roche). C3H10T1/2 adipocytes treated with vehicle control, LPE P-18:0 (1 μM) or LPC P-18:0 (1 μM), LPC P-16:0 (10 µM) or isoproterenol (10 μM) were lysed in RIPA Lysis and Extraction Buffer (Thermo Fisher Scientific) containing SIGMAFAST protease inhibitor cocktail (Sigma) and PhoSTOP phosphatase inhibitor (Roche). The extracted protein concentration was quantified by BCA analysis and measured by spectrophotometry at 562 nm (MultiSkan GO, Thermo Fisher Scientific). Proteins were denatured in an SDS sample buffer at 95° C. for 5 min, separated in SDS-PAGE gel, and transferred to a PVDF membrane (Bio-Rad). The membrane was blocked with BSA in 5% non-fat dry milk or TBST (Tris-buffered saline containing 0.1% Tween 20) and incubated overnight along with the primary antibody at 4° C., then cultured with horseradish peroxidase (HRP)-conjugated secondary antibody for 1 hour at room temperature. The primary antibody used for Western blot analysis are listed in Reagents or Resources. Protein expression was detected by a Fusion Solo chemiluminescence imaging system (Vilber Lourmat) and analyzed with EvolutionCapt software (version 17.03). Immunoblots were quantified with National Institutes of Health ImageJ software (version 1.52a)."}, "[3]": {"test_system": "C3H10T1/2 adipocytes", "experiment": "Oxygen consumption rate (Seahorse XF, Cell Mito Stress Test)", "format": "cell-based", "details": "1 μM; FIGS. 2B and 2C", "procedure": "as §1\nOxygen consumption rates (OCRs) were measured with a Seahorse XF Analyzer (Agilent). The differentiated C3H10T1/2 adipocytes […] treated with LPC P-18:0 (1 μM), LPE P-18:0 or vehicle were washed, and maintained in an assay medium (XF DMEM basal medium, pH 7.4 (Agilent)) supplemented with D-(+)-glucose (25 mM) and L-glutamine (4 mM). The XFp Cell Mito Stress Test Kit (Agilent) was used at concentrations of 2.5 μM oligomycin, 0.5 μM carbonyl cyanide-4-(trifluoromethoxy) phenylhydrazone (FCCP) and 0.5 µM rotenone/antimycin A. Basal and maximal OCRs were calculated by subtracting non-mitochondrial respiration. The ATP production rate was calculated by subtracting the OCR induced by oligomycin A from the basal OCR. Spare respiratory capacity was calculated by subtracting baseline OCR from the maximal OCR. The OCR was normalized to protein concentration. Data were analyzed using Agilent Wave software (version 2.6.0.31)."}, "[4]": {"test_system": "HFD-fed mice", "experiment": "Glucose tolerance test in HFD-fed mice", "format": "in vivo", "details": "200 μg/kg/day intraperitoneally for 2 weeks, FIG. 4", "procedure": "(§3) For the diet-induced obesity model, 8-week-old mice were fed a HFD (60% fat, Research Diets, cat #D12492) for 8 weeks. Standardized rodent pellet feed (NCD, Purina, cat #38057) was used as the control feed. Energy expenditure (EE) was estimated by an indirect calorimeter (PhenoMaster, TSE Systems, Germany). Body compositions were measured by nuclear magnetic resonance (NMR) scanning EchoMRI-700 (Echo Medical Systems). To investigate effects of treatment with LPE P-18:0, the mice were fed a HFD for 8 weeks and injected intraperitoneally with LPE P-18:0 (Avanti Polar Lipids, 200 μg/kg/day, cat #852471P) or vehicle for 2 weeks."}, "[5]": {"test_system": "HFD-fed mice", "experiment": "Indirect calorimetry analysis in HFD-fed mice", "format": "in vivo", "details": "200 μg/kg/day intraperitoneally for 2 weeks", "procedure": "as §3"}, "[6]": {"test_system": "adipose tissues of HFD-fed mice", "experiment": "Immunoblot analysis of BAT, iWAT and gWAT of HFD-fed mice", "format": "in vivo", "details": "200 μg/kg/day intraperitoneally for 2 weeks, FIGS. 3A, 3B", "procedure": "as §2, with “Proteins were denatured in an SDS sample buffer at 95° C. for 5 min, separated in SDS-PAGE gel, and transferred to a PVDF membrane (Bio-Rad). The membrane was blocked with BSA in 5% non-fat dry milk or TBST (Tris-buffered saline containing 0.1% Tween 20) and incubated overnight along with the primary antibody at 4° C., then cultured with horseradish peroxidase (HRP)-conjugated secondary antibody for 1 hour at room temperature. The primary antibody used for Western blot analysis are listed in Reagents or Resources.” left out\nFor the diet-induced obesity model, 8-week-old mice were fed a HFD (60% fat, Research Diets, cat #D12492) for 8 weeks. […] Body compositions were measured by nuclear magnetic resonance (NMR) scanning EchoMRI-700 (Echo Medical Systems). […]"}, "[7]": {"test_system": "HFD-fed mice", "experiment": "Body weight and body composition in diet-induced obesity model", "format": "in vivo", "details": "200 μg/kg/day intraperitoneally for 2 weeks, FIG. 5", "procedure": "as §3"}, "[8]": {"test_system": "HFD-fed mice", "experiment": "Intraperitoneal insulin tolerance test (ITT)", "format": "in vivo", "details": "200 μg/kg/day intraperitoneally for 2 weeks, insulin 0.75 units/kg i.p., FIG. 5E", "procedure": "as §3\nFor the insulin tolerance test, the mice were fasted for 6 hours before the test, was injected intraperitoneally with insulin (Sigma, 0.75 units/kg body weight, cat #91077C-1G), and blood glucose was measured at a designated time interval."}}}
{"smiles": "CCCCCCCCCCCCCCCC/C=C\\OC[C@@H](O)COP(=O)([O-])OCC[N+](C)(C)C", "note": "[LPC P-18:0]", "values": [{"measurement": "intracellular cAMP levels", "setting": "[1]", "result": "increase"}, {"measurement": "levels of phosphorylated HSL, CREB and PKA substrates", "setting": "[2]", "result": "significant increase"}, {"measurement": "mitochondrial enzymes, including MCAD, ATP5A, UQCRC2, SDHB, NDUFB8, and COXIV", "setting": "[2]", "result": "significant upregulation"}, {"measurement": "ATP production rate", "setting": "[3]", "result": "increase"}, {"measurement": "maximum respiration rate", "setting": "[3]", "result": "increase"}, {"measurement": "spare respiratory capacity", "setting": "[3]", "result": "increase"}]}
{"smiles": "CCCCCCCCCCCCCCCC/C=C\\OC[C@@H](O)COP(=O)(O)OCCN", "note": "[LPE P-18:0]", "values": [{"measurement": "intracellular cAMP levels", "setting": "[1]", "result": "increase"}, {"measurement": "glucose tolerance", "setting": "[4]", "result": "improves"}, {"measurement": "Food intake", "setting": "[5]", "result": "decreased"}, {"measurement": "activity", "setting": "[5]", "result": "increased"}, {"measurement": "VO2", "setting": "[5]; FIGS. 5C, 5D", "result": "increased"}, {"measurement": "energy expenditure", "setting": "[5]; FIGS. 5C, 5D", "result": "increased"}, {"measurement": "PKA signaling and mitochondrial activity in the adipose tissues", "setting": "[6]", "result": "upregulates"}, {"measurement": "body fat mass", "setting": "[7]", "result": "decreased"}, {"measurement": "body weight", "setting": "[7]", "result": "decreased"}, {"measurement": "levels of phosphorylated HSL, CREB and PKA substrates", "setting": "[2]", "result": "significant increase"}, {"measurement": "mitochondrial enzymes, including MCAD, ATP5A, UQCRC2, SDHB, NDUFB8, and COXIV", "setting": "[2]", "result": "significant upregulation"}, {"measurement": "insulin tolerance", "setting": "[8]", "result": "decreased"}, {"measurement": "ATP production rate", "setting": "[3]", "result": "increase"}, {"measurement": "maximum respiration rate", "setting": "[3]", "result": "increase"}, {"measurement": "spare respiratory capacity", "setting": "[3]", "result": "increase"}]}
{"smiles": "CCCCCCCCCCCCCC/C=C\\OC[C@@H](O)COP(=O)([O-])OCC[N+](C)(C)C", "note": "[LPC P-16:0]", "values": [{"measurement": "levels of phosphorylated HSL and CREB", "setting": "[2]; 10 μM, 4 hours, vs vehicle (4 mg/mL fatty acid-free BSA), FIG. 6", "result": "significant increase"}]}
